# Article PMC10600247, “Impact of C- and N-terminal protection on the stability, metal chelation and antimicrobial properties of calcitermin” (Scientific Reports, 2023)
# Residues, ends and D or L forms follow the SMILES beside them.
# Columns and labels:
# E. coli (ATCC 25922) = assay: In vitro anti-E. coli CFU assay; type: cell-based, Escherichia coli; conditions: pH 5.4; for mean CFU number ± S.D.: per 0.1 mL
# Summary of the method: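 Peptides (final 0.128, 0.064, 0.032 mg/mL), alone or with ZnCl2 or CuCl2 at M:L 0.9:1, were incubated with 10^3 CFU/well in PBS pH 5.4 plus 1.5% TSB at 37 °C with slow rocking for 3 and 24 h. Aliquots were plated on TSA and CFU counted after 24 h; triplicate.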
# [1] = T = 298 K, I = 0.1 M (KCl), charges omitted
# [2] = peptide 0.032 mg/mL + CuCl2 (0.9:1), 24 h
# [3] = peptide 0.032 mg/mL + ZnCl2 (0.9:1), 24 h
# [4] = peptide 0.064 mg/mL + CuCl2 (0.9:1), 24 h
# [5] = peptide 0.064 mg/mL + ZnCl2 (0.9:1), 24 h
# [6] = peptide 0.128 mg/mL + ZnCl2 (0.9:1), 24 h
# [7] = peptide alone 0.032 mg/mL, 24 h
# [8] = peptide alone 0.064 mg/mL, 24 h
# [9] = peptide alone 0.128 mg/mL, 24 h
smiles,measurement,setting,value
"CC[C@H](C)[C@H](NC(=O)[C@H](C)NC(=O)[C@@H](N)C(C)C)C(=O)N[C@@H](C)C(=O)N[C@@H](CC(C)C)C(=O)N[C@@H](CCCCN)C(=O)N[C@@H](C)C(=O)N[C@@H](C)C(=O)N[C@@H](Cc1c[nH]cn1)C(=O)N[C@@H](Cc1ccc(O)cc1)C(=O)N[C@@H](Cc1c[nH]cn1)C(=O)N[C@H](C(=O)N[C@@H](Cc1c[nH]cn1)C(=O)N[C@@H](CCCCN)C(=O)N[C@@H](CCC(=O)O)C(=O)O)[C@@H](C)O [WT, VAIALKAAHYHTHKE, reference compound] (H-VAIALKAAHYHTHKE-OH)",CFU decrease/increase with respect to untreated controls,"E. coli (ATCC 25922); peptide 0.032 mg/mL + CuCl2 (0.9:1), 3 h, listed as WT calcitermin",-38%
same,mean CFU number ± S.D.,"E. coli (ATCC 25922); peptide 0.032 mg/mL + CuCl2 (0.9:1), 3 h",505 ± 26 CFU
same,CFU decrease/increase with respect to untreated controls,E. coli (ATCC 25922); [2],-21%
same,mean CFU number ± S.D.,E. coli (ATCC 25922); [2],191 ± 23 CFU
same,CFU decrease/increase with respect to untreated controls,"E. coli (ATCC 25922); peptide 0.032 mg/mL + ZnCl2 (0.9:1), 3 h, listed as WT calcitermin",-38%
same,mean CFU number ± S.D.,"E. coli (ATCC 25922); peptide 0.032 mg/mL + ZnCl2 (0.9:1), 3 h",499 ± 104 CFU
same,CFU decrease/increase with respect to untreated controls,E. coli (ATCC 25922); [3],-7%
same,mean CFU number ± S.D.,E. coli (ATCC 25922); [3],224 ± 8 CFU
same,CFU decrease/increase with respect to untreated controls,"E. coli (ATCC 25922); peptide 0.064 mg/mL + CuCl2 (0.9:1), 3 h, listed as WT calcitermin",-56%
same,mean CFU number ± S.D.,"E. coli (ATCC 25922); peptide 0.064 mg/mL + CuCl2 (0.9:1), 3 h",360 ± 97 CFU
same,CFU decrease/increase with respect to untreated controls,E. coli (ATCC 25922); [4],-11%
same,mean CFU number ± S.D.,E. coli (ATCC 25922); [4],215 ± 17 CFU
same,CFU decrease/increase with respect to untreated controls,"E. coli (ATCC 25922); peptide 0.064 mg/mL + ZnCl2 (0.9:1), 3 h, listed as WT calcitermin",-55%
same,mean CFU number ± S.D.,"E. coli (ATCC 25922); peptide 0.064 mg/mL + ZnCl2 (0.9:1), 3 h",368 ± 18 CFU
same,CFU decrease/increase with respect to untreated controls,E. coli (ATCC 25922); [5],+3%
same,mean CFU number ± S.D.,E. coli (ATCC 25922); [5],249 ± 9 CFU
same,CFU decrease/increase with respect to untreated controls,"E. coli (ATCC 25922); peptide 0.128 mg/mL + CuCl2 (0.9:1), 3 h, listed as WT calcitermin",-91.1%
same,mean CFU number ± S.D.,"E. coli (ATCC 25922); peptide 0.128 mg/mL + CuCl2 (0.9:1), 3 h",72 ± 44 CFU
same,CFU decrease/increase with respect to untreated controls,"E. coli (ATCC 25922); peptide 0.128 mg/mL + CuCl2 (0.9:1), 24 h, listed as WT calcitermin",-82%
same,mean CFU number ± S.D.,"E. coli (ATCC 25922); peptide 0.128 mg/mL + CuCl2 (0.9:1), 24 h",42 ± 12 CFU
same,CFU decrease/increase with respect to untreated controls,"E. coli (ATCC 25922); peptide 0.128 mg/mL + ZnCl2 (0.9:1), 3 h, listed as WT calcitermin",-91%
same,mean CFU number ± S.D.,"E. coli (ATCC 25922); peptide 0.128 mg/mL + ZnCl2 (0.9:1), 3 h",74 ± 17 CFU
same,CFU decrease/increase with respect to untreated controls,E. coli (ATCC 25922); [6],-8%
same,mean CFU number ± S.D.,E. coli (ATCC 25922); [6],222 ± 16 CFU
same,CFU decrease/increase with respect to untreated controls,"E. coli (ATCC 25922); peptide alone 0.032 mg/mL, 3 h",-12%
same,mean CFU number ± S.D.,"E. coli (ATCC 25922); peptide alone 0.032 mg/mL, 3 h",718 ± 138 CFU
same,CFU decrease/increase with respect to untreated controls,E. coli (ATCC 25922); [7],-7%
same,mean CFU number ± S.D.,E. coli (ATCC 25922); [7],224 ± 21 CFU
same,CFU decrease/increase with respect to untreated controls,"E. coli (ATCC 25922); peptide alone 0.064 mg/mL, 3 h",-19%
same,mean CFU number ± S.D.,"E. coli (ATCC 25922); peptide alone 0.064 mg/mL, 3 h",659 ± 139 CFU
same,CFU decrease/increase with respect to untreated controls,E. coli (ATCC 25922); [8],+14%
same,mean CFU number ± S.D.,E. coli (ATCC 25922); [8],275 ± 16 CFU
same,CFU decrease/increase with respect to untreated controls,"E. coli (ATCC 25922); peptide alone 0.128 mg/mL, 3 h",+42%
same,mean CFU number ± S.D.,"E. coli (ATCC 25922); peptide alone 0.128 mg/mL, 3 h",1155 ± 270 CFU
same,CFU decrease/increase with respect to untreated controls,E. coli (ATCC 25922); [9],-3%
same,mean CFU number ± S.D.,E. coli (ATCC 25922); [9],233 ± 10 CFU
same,logβ [CuH2L],[1],33.77(4)
same,logβ [CuH3L],[1],40.77(4)
same,logβ [CuH4L],[1],46.97(3)
same,logβ [CuH5L],[1],52.07(3)
same,logβ [CuH6L],[1],56.40(6)
same,logβ [CuH-1L],[1],6.90(5)
same,logβ [CuH-3L],[1],-14.19(5)
same,logβ [CuHL],[1],26.20(4)
same,logβ [CuL],[1],16.83(5)
same,logβ [ZnH2L],[1],28.59(5)
same,logβ [ZnH3L],[1],36.47(5)
same,logβ [ZnH4L],[1],43.55(3)
same,logβ [ZnH5L],[1],49.30(8)
same,logβ [ZnH-1L],[1],-0.2(1)
same,logβ [ZnH-2L],[1],-10.8(1)
same,logβ [ZnHL],[1],20.11(6)
same,logβ [ZnL],[1],10.35(8)
same,"logK, line of [CuH2L]",[1]; Table S1,7.00
same,"logK, line of [CuH3L]",[1]; Table S1,6.21
same,"logK, line of [CuH4L]",[1]; Table S1,5.09
same,"logK, line of [CuH5L]",[1]; Table S1,4.34
same,"logK, line of [CuH-1L]",[1]; Table S1,9.93
same,"logK, line of [CuHL]",[1]; Table S1,7.58
same,"logK, line of [CuL]",[1]; Table S1,9.37
same,"logK, line of [ZnH2L]",[1]; Table S1,7.87
same,"logK, line of [ZnH3L]",[1]; Table S1,7.08
same,"logK, line of [ZnH4L]",[1]; Table S1,5.75
same,"logK, line of [ZnH-1L]",[1]; Table S1,10.5
same,"logK, line of [ZnH-2L]",[1]; Table S1,10.7
same,"logK, line of [ZnHL]",[1]; Table S1,8.48
same,"logK, line of [ZnL]",[1]; Table S1,9.77
